Assay results: patent US10100001B2, “Adenylyl cyclase inhibitors for neuropathic and inflammatory pain” (Purdue Research Foundation, priority 2015, dated 2018)

Assays:
[1] = tested on: neuroinflammatory and neuropathic pain rodent models; details: cited from earlier work
AC1 = molecular target: T1, AC1 (Homo sapiens, UniProt Q08828); test: Inhibition of A23187-mediated (Ca2+-stimulated) cAMP accumulation in HEK cells stably expressing AC1; type: cell-based; details: for inhibition at 4 µM / inhibition at 40 µM: HEK293, read-out: AC1 Inhibition Percentage; for inhibition at 4 µM: 4 μM compound; for inhibition at 40 µM: 40 μM compound; for IC50: HEK cells stably expressing AC1, inhibitors 30 min, then 3 μM A23187 with IBMX, average and S.E.M. of at least three independent experiments, read-out: IC50 for inhibition of the A23187-mediated cAMP response of AC1
T1 construct: expressed in transfected cells
Procedure: HEK cells stably expressing AC1 were treated with inhibitors for 30 min, and subsequently incubated with 3 μM A23187 in the presence of 2 mM IBMX. Data represent the average and S.E.M. of at least three independent experiments.
A23187 is a Ca2+ ionophore, which promotes Ca2+ binding to calmodulin in the cells and, subsequent stimulation of AC1.
HEK (human embryonic kidney) cells stably expressing human AC1, were cultured in Dubelcco's Modified Eagle Medium (Life Technologies, Grand Island, N.Y.) supplemented with 5% bovine calf serum (Hyclone, Logan, Utah), 5% fetal clone I (Hyclone, Logan, Utah), Antibiotic-Antimycotic (Life Technologies, Grand Island, N.Y.), and G418 (Invivogen, San Diego, Calif.). The cells were grown to confluency in 15 cm disses, harvested using Cell Dissociation Buffer (Life Technologies, Grand Island, N.Y.), and resuspended in 4 ml of fetal bovine serum (Hyclone, Logan, Utah) containing 10% dimethyl sulfoxide (Sigma-Aldrich, St. Louis, Mo.). 1 ml of cell suspension was added to cryovials that were incubated overnight at −80° C. in a CoolCell device (BioCision, Larkspur, Calif.) for cryopreservation. On the following day, cryovials were stored in liquid N2 until the assay day.
Cryopreserved HEK-AC1 cells were thawed in a 37° C. water-bath, resuspended in 10 ml optiMEM (Life Technologies, Grand Island, N.Y.) and centrifuged at 500×g for 5 min. The cells were resuspended in 10 ml optiMEM and the centrifugation step was repeated. Cells were then resuspended in 1 ml optiMEM and counted using a Countess automated cell counter (Life Technologies, Grand Island, N.Y.). Cells were added to a white, flat bottom, low-volume, tissue culture-treated 384 well plate (PerkinElmer, Shelton, Conn.) at a final density of 2500 cells/well. The plate was centrifuged for 1 min at 100×g and incubated in a 37° C. humidified incubator for 1 h. […] Following this incubation A23187 (Sigma-Aldrich, St. Louis, Mo.) (3 μM final concentration) containing 3-isobutyl-1-methylxanthine (Sigma-Aldrich, St. Louis, Mo.) (0.5 mM final concentration) was added. The plate was centrifuged for 1 min at 100×g and incubated at room temperature for 1 h. Cyclic AMP accumulation was measured using Cisbio's dynamic 2 kit (Cisbio Bioassays, Bedford, Mass.) according to the manufacturer's instructions. Plates were analyzed for fluorescent emissions at 620 nm and 665 nm using 330 nm as the excitation wavelength in a Cytation 3 Cell Imaging Multi-Mode Reader (Biotek, Winooski, Vt.), and ratiometric analysis was carried out by dividing the 665 nm emissions by the 620 nm emissions to extrapolate the cAMP concentrations from a cAMP standard curve. The data represent the average of at least three independent experiments ran in duplicate.

T1 sequence (Q08828 whole entry): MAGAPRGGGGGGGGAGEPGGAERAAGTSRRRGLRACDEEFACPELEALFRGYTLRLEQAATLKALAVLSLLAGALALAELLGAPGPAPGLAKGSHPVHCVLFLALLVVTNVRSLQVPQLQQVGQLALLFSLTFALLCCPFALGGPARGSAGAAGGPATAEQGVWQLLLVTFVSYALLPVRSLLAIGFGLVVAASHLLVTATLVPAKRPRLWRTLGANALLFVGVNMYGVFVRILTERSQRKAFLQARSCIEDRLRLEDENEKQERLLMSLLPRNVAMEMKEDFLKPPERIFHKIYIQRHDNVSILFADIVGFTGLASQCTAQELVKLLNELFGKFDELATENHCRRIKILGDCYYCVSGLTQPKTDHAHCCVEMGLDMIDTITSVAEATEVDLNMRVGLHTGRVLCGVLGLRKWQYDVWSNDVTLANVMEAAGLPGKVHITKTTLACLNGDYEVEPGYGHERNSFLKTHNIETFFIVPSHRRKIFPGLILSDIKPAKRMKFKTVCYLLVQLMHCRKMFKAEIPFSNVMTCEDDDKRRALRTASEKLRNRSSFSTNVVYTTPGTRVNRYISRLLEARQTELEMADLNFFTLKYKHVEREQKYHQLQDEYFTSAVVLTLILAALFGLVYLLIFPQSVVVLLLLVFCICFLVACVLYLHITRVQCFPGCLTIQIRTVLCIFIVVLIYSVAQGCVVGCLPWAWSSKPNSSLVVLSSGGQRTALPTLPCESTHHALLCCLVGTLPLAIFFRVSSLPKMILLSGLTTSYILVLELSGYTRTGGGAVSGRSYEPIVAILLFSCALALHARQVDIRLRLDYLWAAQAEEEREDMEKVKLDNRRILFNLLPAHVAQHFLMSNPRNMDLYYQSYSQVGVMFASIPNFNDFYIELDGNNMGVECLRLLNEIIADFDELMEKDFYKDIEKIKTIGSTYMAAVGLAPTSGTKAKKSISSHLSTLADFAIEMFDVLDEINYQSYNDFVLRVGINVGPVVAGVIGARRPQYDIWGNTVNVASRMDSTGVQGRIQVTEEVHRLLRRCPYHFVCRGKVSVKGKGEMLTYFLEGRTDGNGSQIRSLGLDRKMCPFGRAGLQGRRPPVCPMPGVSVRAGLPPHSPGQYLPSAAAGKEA

| SMILES | analgesic effects [1] | inhibition at 4 µM (AC1) | inhibition at 40 µM (AC1) | IC50 (AC1) |
| --- | --- | --- | --- | --- |
| Nc1ncnc2c1ncn2CCNCCCCCO [NB001] | analgesic effects | – | – | – |
| COC(=O)CCCN(C/C=C/c1ccc(Cl)cc1)Cc1ccc(F)cc1 [Compound 7gc, (E)-methyl 4-((3-(4-chlorophenyl)allyl)(4-fluorobenzyl)amino)butanoate] | – | -24% | 70% | – |
| FC(F)(F)c1ccc(/C=C/CN(CCc2c[nH]c3ccccc23)Cc2ccccc2)cc1 [Compound 7ah, (E)-N-(2-(1H-indol-3-yl)ethyl)-N-benzyl-3-(4-(trifluoromethyl)phenyl)prop-2-en-1-amine] | – | 24% | 96% | – |
| COC(=O)CCCN(C/C=C/c1ccccc1)Cc1ccc(F)cc1 [Compound 7ga, methyl 4-(cinnamyl(4-fluorobenzyl)amino)butanoate] | – | 20% | 67% | – |
| COc1ccc2c(c1)C(c1ccccc1)CN(C/C=C/c1ccc(C)cc1)CC2 (stereo not shown) [Compound 7jb, (E)-8-methoxy-1-phenyl-3-(3-p-tolylallyl)-2,3,4,5-tetrahydro-1H-benzo[d]azepine] | – | 43% | 90% | 16.7 µM |
| Cc1cccc(/C=C/CN(C)Cc2cccc3ccccc23)c1 [Compound 7fb, (E)-N-methyl-N-(naphthalen-1-ylmethyl)-3-m-tolylprop-2-en-1-amine] | – | 2% | 63% | – |
| CCOC(=O)c1ccc(/C=C/CN(C)Cc2cccc3ccccc23)cc1 [Compound 7fi, (E)-ethyl 4-(3-(methyl(naphthalen-1-ylmethyl)amino)prop-1-enyl)benzoate] | – | -40% | 85% | – |
| COc1ccc(/C=C/CN(C)Cc2cccc3ccccc23)cc1 [Compound 7fj, (E)-3-(4-methoxyphenyl)-N-methyl-N-(naphthalen-1-ylmethyl)prop-2-en-1-amine] | – | -14% | 82% | – |
| CN(C/C=C/c1ccc(C(F)(F)F)cc1)Cc1cccc2ccccc12 [Compound 7fh, (E)-N-methyl-N-(naphthalen-1-ylmethyl)-3-(4-(trifluoromethyl)phenyl)prop-2-en-1-amine] | – | 30% | 87% | – |
| COc1ccc2c(c1)C(c1ccccc1)CN(C/C=C/c1ccc(C(F)(F)F)cc1)CC2 (stereo not shown) [Compound 7jf, (E)-8-methoxy-1-phenyl-3-(3-(4-(trifluoromethyl)phenyl)allyl)-2,3,4,5-tetrahydro-1H-benzo[d]azepine] | – | 17% | 88% | – |
| Fc1ccc(/C=C/CN(CCc2c[nH]c3ccccc23)Cc2ccccc2)cc1 [Compound 7ae, (E)-N-(2-(1H-indol-3-yl)ethyl)-N-benzyl-3-(4-fluorophenyl)prop-2-en-1-amine] | – | 47% | 91% | 12.9 µM |
| CCOC(=O)c1ccc(/C=C/CN(CCc2c[nH]c3ccccc23)Cc2ccccc2)cc1 [Compound 7ai, (E)-ethyl 4-(3-((2-(1H-indol-3-yl)ethyl)(benzyl)amino)prop-1-enyl)benzoate] | – | 36% | 99% | – |
| COc1ccc2c(c1)C(c1ccc(Br)cc1)CN(C/C=C/c1ccc(Cl)cc1)CC2 (stereo not shown) [Compound 7kc, (E)-1-(4-bromophenyl)-3-(3-(4-chlorophenyl)allyl)-8-methoxy-2,3,4,5-tetrahydro-1H-benzo[d]azepine] | – | 32% | 32% | – |
| Fc1ccc(CN(C/C=C/c2ccccc2)CCc2c[nH]c3ccccc23)cc1 [Compound 7bb, (E)-N-(2-(1H-indol-3-yl)ethyl)-N-(4-fluorobenzyl)-3-phenylprop-2-en-1-amine] | – | 31% | 96% | – |
| C(=C\c1ccccc1)/CN(CCc1c[nH]c2ccccc12)Cc1cccc2ccccc12 [Compound 7c, (E)-N-(2-(1H-indol-3-yl)ethyl)-N-(naphthalen-1-ylmethyl)-3-phenylprop-2-en-1-amine] | – | 39% | 86% | 8.95 µM |
| Cc1ccc(S(=O)(=O)N2CCCN(C/C=C/c3ccccc3)CC2)cc1 [Compound 7ha, 1-cinnamyl-4-tosyl-1,4-diazepane] | – | 6% | 73% | – |
| COc1ccc(CN(C/C=C/c2ccccc2)CCc2c[nH]c3ccccc23)cc1 [Compound 7ba, (E)-N-(2-(1H-indol-3-yl)ethyl)-N-(4-methoxybenzyl)-3-phenylprop-2-en-1-amine] | – | 34% | 98% | – |
| COc1ccc2c(c1)C(c1ccccc1)CN(C/C=C/c1ccc(I)cc1)CC2 (stereo not shown) [Compound 7jc, (E)-3-(3-(4-iodophenyl)allyl)-8-methoxy-1-phenyl-2,3,4,5-tetrahydro-1H-benzo[d]azepine] | – | -3% | 51% | – |
| Cc1ccccc1/C=C/CN(C)Cc1cccc2ccccc12 [Compound 7fc, (E)-N-methyl-N-(naphthalen-1-ylmethyl)-3-o-tolylprop-2-en-1-amine] | – | -71% | 77% | – |
| CCOC(=O)c1ccc(/C=C/CN(CCCC(=O)OC)Cc2ccc(F)cc2)cc1 [Compound 7gd, (E)-ethyl 4-(3-((4-fluorobenzyl)(4-methoxy-4-oxobutyl)amino)prop-1-enyl)benzoate] | – | -24% | 71% | – |
| Cc1ccc(/C=C/CN(C)Cc2cccc3ccccc23)cc1 [Compound 7fa, (E)-N-methyl-N-(naphthalen-1-ylmethyl)-3-p-tolylprop-2-en-1-amine] | – | -26% | 95% | – |
| C(=C\c1ccccc1)/CN(CCc1c[nH]c2ccccc12)Cc1ccccc1 [Compound 7aa, (E)-N-(2-(1H-indol-3-yl)ethyl)-N-benzyl-3-phenylprop-2-en-1-amine] | – | 41% | 92% | 9.92 µM |
| CN(C/C=C/c1ccc(F)cc1)Cc1cccc2ccccc12 [Compound 7fe, (E)-3-(4-fluorophenyl)-N-methyl-N-(naphthalen-1-ylmethyl)prop-2-en-1-amine] | – | 4% | 85% | – |
| COc1ccc2c(c1)C(c1ccccc1)CN(C/C=C/c1ccc(Cl)cc1)CC2 (stereo not shown) [Compound 7je, (E)-3-(3-(4-chlorophenyl)allyl)-8-methoxy-1-phenyl-2,3,4,5-tetrahydro-1H-benzo[d]azepine] | – | 33% | 78% | 9.1 µM |
| COc1ccc2c(c1)C(c1ccccc1)CN(CC=Cc1ccccc1)CC2 (stereo not shown) [Compound 7ja, 3-cinnamyl-8-methoxy-1-phenyl-2,3,4,5-tetrahydro-1H-benzo[d]azepine] | – | 72% | 95% | – |
| Cc1ccc(/C=C/CN2CCCN(S(=O)(=O)c3ccc(C)cc3)CC2)cc1 [Compound 7hb, (E)-1-(3-p-tolylallyl)-4-tosyl-1,4-diazepane] | – | -26% | 27% | – |
| COC(=O)CCCN(C/C=C/c1ccc(C)cc1)Cc1ccc(F)cc1 [Compound 7gb, (E)-methyl 4-((4-fluorobenzyl)(3-p-tolylallyl)amino)butanoate] | – | -3% | 64% | – |
| Clc1ccc(/C=C/CN(CCc2c[nH]c3ccccc23)Cc2ccccc2)cc1 [Compound 7af, (E)-N-(2-(1H-indol-3-yl)ethyl)-N-benzyl-3-(4-chlorophenyl)prop-2-en-1-amine] | – | 30% | 98% | – |
| CN(C/C=C/c1ccc(I)cc1)Cc1cccc2ccccc12 [Compound 7fd, (E)-3-(4-iodophenyl)-N-methyl-N-(naphthalen-1-ylmethyl)prop-2-en-1-amine] | – | 11% | 94% | – |
| COc1ccc(/C=C/CN(C)Cc2cccc3ccccc23)cc1OC [Compound 7fk, (E)-3-(3,4-dimethoxyphenyl)-N-methyl-N-(naphthalen-1-ylmethyl)prop-2-en-1-amine] | – | -14% | 33% | – |
